The values that follow come from paper PMC4019636, “Rational Design of Berberine-Based FtsZ Inhibitors with Broad-Spectrum Antibacterial Activity” (PLoS ONE, 2014).

In the assay the test system is GFP-tagged FtsZ in E. coli JM109 WM647. Description: Z-ring visualization in E. coli cells. The format is cell-based. The conditions noted are these: 48 µM compound, 4 h at 37°C. As to the method:
A culture of E. coli JM109 WM647 containing the IPTG-inducible plasmid for the overexpression of green fluorescence protein (GFP)-tagged FtsZ was grown in LB medium supplemented with 30 µg/mL of chloramphenicol. After overnight incubation, a sample of the culture was diluted to 1% in the LB medium containing different concentrations of the test compound and 40 µM of IPTG. After 4 h incubation at 37°C, the E. coli cells were fixed, harvested and resuspended in PBS buffer containing 0.25% of agarose. 10 µL of sample mixture were added to a pretreated microscopic slide with 0.1% (w/v) poly-L-lysine and visualized using a fluorescence microscope at 60× oil immersion magnification with a standard FITC filter set. The images were captured using an Olympus Bio Imaging Navigator FSX 100 microscope.

As to `COc1ccc2cc3[n+](cc2c1OCCCOc1ccc(Cl)cc1)CCc1cc2c(cc1-3)OCO2` [Compound 2], the “Z-ring formation / localization of GFP-tagged FtsZ” value is on record as “caused mislocalization of the FtsZ protein”.
